# Reference: US20030124653A1, “Method of producing glycoproteins having reduced complex carbohydrates in mammalian cells” (NOVAZYME PHARMACEUTICALS, INC., priority 2001, published 2003)
# System: CHO cell line (GAA LEC clone R3.3) expressing rh-GAA
# Experiment: Phosphorylation efficiency of rh-GAA from cultures containing mannosidase inhibitors ([32P] incorporation by GlcNAc phosphotransferase)
# Type: cell-based, Chinese Hamster
# Conditions: for [^32P] Phosphate Incorporation (cpm): conditioned media with 6 μg GAA; for effect on the phosphorylation reaction of rh-GAA: increasing amounts of inhibitor alone, versus GAA cultured without mannosidase inhibitors (FIG. 1)
# Method: To determine whether mannosidase inhibitors can increase phosphorylation efficiency of recombinant human acid alpha glucosidase (rh-GAA), a CHO cell line (GAA LEC clone R3.3) expressing rh-GAA was grown in various conditions that contained different amounts of the following mannosidase the inhibitors: Kifunensin; Deoxymannojirimycin (DMJ); or combinations of both inhibitors. Conditioned media from each inhibitor condition containing 6 μg of GAA (based on GAA activity assay) was then incubated with purified bovine GlcNAc phosphotransferase (Pt'ase) and [^32P]UDP-GlcNAc. Subsequently, each phosphorylation reaction was loaded onto a concanavalin A-sepharose column to capture glycoproteins, e.g., rh-GAA. The concanavalin A-sepharose was washed and the resin was counted in a liquid scintillation counter to measure the ^32P incorporation, i.e., the extent of phosphorylation on rh-GAA. The results are summarized in Table 1 below and FIGS. 1 and 2.
Compound,[^32P] Phosphate Incorporation (cpm) (0.5 μg/ml inhibitor in culture),[^32P] Phosphate Incorporation (cpm) (1.0 μg/ml inhibitor in culture),[^32P] Phosphate Incorporation (cpm) (2.5 μg/ml inhibitor in culture),[^32P] Phosphate Incorporation (cpm) (5.0 μg/ml inhibitor in culture),[^32P] Phosphate Incorporation (cpm) (10.0 μg/ml inhibitor in culture),effect on the phosphorylation reaction of rh-GAA,[^32P] Phosphate Incorporation (cpm) (0.5 mM inhibitor in culture),[^32P] Phosphate Incorporation (cpm) (1.0 mM inhibitor in culture),[^32P] Phosphate Incorporation (cpm) (1.75 mM inhibitor in culture),[^32P] Phosphate Incorporation (cpm) (2.5 mM inhibitor in culture),[^32P] Phosphate Incorporation (cpm) (5.0 mM inhibitor in culture)
"O=C1N[C@@H]2[C@@H](O)[C@@H](O)[C@H](O)[C@@H](CO)N2C1=O [Kifunensin only, kifunensine]",6675,8585,7147,6717,7116,greatly enhance,–,–,–,–,–
"OC[C@H]1NC[C@@H](O)[C@@H](O)[C@@H]1O [DMJ only, deoxymannojirimycin]",–,–,–,–,–,greatly enhance,3656,4500,4450,7258,6413
